Test results taken from patent US6172066A, “Dihydropyrimidines and uses thereof” (Synaptic Pharmaceutical Corporation, priority 1997, dated 2001).
Structures can show the parent of a compound that is named as a salt.

The molecules below were run against T1, α1A Human Adrenergic Receptor (Homo sapiens, UniProt P35348) (assay: Radioligand binding, [3H]prazosin displacement, cloned human α1A receptor (LM(tk-) cell membranes)). Conditions: [3H]prazosin 0.5 nM, 37° C., 20 min.
T1 construct: The entire coding region of α1A (1401 bp); expressed in transfected cells
T1 sequence (P35348 1-466): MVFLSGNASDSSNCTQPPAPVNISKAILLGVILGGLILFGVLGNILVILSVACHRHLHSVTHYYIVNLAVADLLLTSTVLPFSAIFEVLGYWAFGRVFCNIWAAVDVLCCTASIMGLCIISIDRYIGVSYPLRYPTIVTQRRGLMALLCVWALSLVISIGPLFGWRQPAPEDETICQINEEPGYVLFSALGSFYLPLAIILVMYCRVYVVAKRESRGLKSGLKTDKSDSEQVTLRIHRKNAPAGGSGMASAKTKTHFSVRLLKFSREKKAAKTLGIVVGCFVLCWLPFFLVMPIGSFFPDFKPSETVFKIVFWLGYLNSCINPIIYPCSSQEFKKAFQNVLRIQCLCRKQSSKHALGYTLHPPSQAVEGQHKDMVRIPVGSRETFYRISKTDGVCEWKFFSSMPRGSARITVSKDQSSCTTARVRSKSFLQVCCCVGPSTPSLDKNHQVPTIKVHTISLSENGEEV
Experimental: The activity of compounds at the different human receptors was determined in vitro using cultured cell lines that selectively express the receptor of interest. These cell lines were prepared by transfecting the cloned cDNA or cloned genomic DNA or constructs containing both genomic DNA and cDNA encoding the human α-adrenergic receptors as follows:
The entire coding region of α1A (1401 bp), including 400 base pairs of 5' untranslated sequence (5' UT) and 200 bp of 3' untranslated sequence (3' UT), was cloned into the KpnI site of the polylinker-modifiedpCEXV-3-derived eukaryotic expression vector, EXJ.RH. The construct involved ligating three partial overlapping fragments: a 5' 0.6kb HincII genomic clone, a central 1.8 EcoRI hippocampal cDNA clone, and a 3' 0.6Kb PstI genomic clone. The hippocampal cDNA fragment overlaps with the 5' and 3' genomic clones so that the HincII and PstI sites at the 5' and 3' ends of the cDNA clone, respectively, were utilized for ligation. This full-length clone was cloned into the KpnI site of the expression vector, using the 5' and 3' KpnI sites of the fragment, derived from vector (i.e., pBluescript) and 3'-untranslated sequences, respectively. Stable cell lines were selected as described above. The stable cell line expressing the human α1A receptor used herein was designated L-α1C (old nomenclature) and was deposited with the American Type Culture Collection, 12301 Parklawn Drive, Rockville, Md. 20852, U.S.A. under the provisions of the Budapest Treaty for the International Recognition of the Deposit of Microorganisms for the Purposes of Patent Procedure. The cell line expressing the human α1A receptor was accorded Accession No. CRL 11140, on Sep. 25, 1992.
Transfected cells from culture flasks were scraped into 5 ml of 5 mM Tris-HCl, 5 mM EDTA, pH 7.5, and lysed by sonication. The cell lysates were centrifuged at 1000 rpm for 5 min at 4° C., and the supernatant was centrifuged at 30,000×g for 20 min at 4° C. The pellet was suspended in 50 mM Tris-HCl, 1 mM MgCl2, and 0.1% ascorbic acid at pH 7.5. Binding of the α1 antagonist [^3 H]prazosin (0.5 nM, specific activity 76.2 Ci/mmol) to membrane preparations of LM(tk-) cells was done in a final volume of 0.25 ml and incubated at 37° C. for 20 min. Nonspecific binding was determined in the presence of 10 μM phentolamine. The reaction was stopped by filtration through GF/B filters using a cell harvester. Inhibition experiments, routinely consisting of 7 concentrations of the tested compounds, were analyzed using a non-linear regression curve-fitting computer program to obtain Ki values.

| hα1A pKi | Molecule |
| --- | --- |
| 9.51 | cis-6-(3,4,5-Trifluorophenyl)-1-{N-[2-(4-cyano-4-phenyl-cyclohexylamino)ethyl]}-carboxamido-5-acetyl-4-methoxymethyl-2-oxo-1,2,3,6-tetrahydropyrimidine hydrochloride [Example 2] |

Same assay, conditions: [3H]prazosin 0.5 nM, 37° C., 20 min, read-out: hα1A pKi (converted)

| Molecule | Ki |
| --- | --- |
| CCC1=C(C(N)=O)C(c2ccc(F)cc2F)N(C(=O)NCCN[C@H]2CC[C@](C#N)(c3ccccc3)CC2)C(=O)N1 (single isomer, unassigned; (+)) [Example 3, (+)-cis-5-Carboxamido-6-(2,4-difluorophenyl)-1-{N-[2-(4-cyano-4-phenyl-cyclohexylamino)ethyl]}carboxamido-4-ethyl-2-oxo-1,2,3,6-tetrahydropyrimidine hydrochloride] | 490 pM |
| COCC1=C(C(=O)OC)C(c2ccc(F)c(F)c2)N(C(=O)NCCN[C@H]2CC[C@](C#N)(c3ccccc3)CC2)C(=O)N1 (single isomer, unassigned; (+)) [Example 4, (+)-cis-6-(3,4-Difluorophenyl)-1-{N-[2-(4-cyano-4-phenyl-cyclohexylamino)ethyl]}carboxamido-5-methoxycarbonyl-4-methoxymethyl-2-oxo-1,2,3,6-tetrahydropyrimidine hydrochloride] | 135 pM |
| COCC1=C(C(=O)OC)C(c2ccc(F)c(F)c2)N(C(=O)NCCN[C@H]2CC[C@](C(=O)OC)(c3ccccc3)CC2)C(=O)N1 (single isomer, unassigned; (+)) [Example 11, (+)-cis-6-(3,4-Difluorophenyl)-1-{N-[2-(4-methoxycarbonyl-4-phenyl-cyclohexylamino)ethyl]}carboxamido-5-methoxycarbonyl-4-methoxymethyl-2-oxo-1,2,3,6-tetrahydropyrimidine hydrochloride] | 219 pM |
| COC(=O)C1=C(C)NC(=O)N(C(=O)NCCN[C@H]2CC[C@](C#N)(c3ccccc3F)CC2)C1c1ccc(F)c(F)c1 (single isomer, unassigned; (+)) [Example 13, (+)-cis-6-(3,4-Difluorophenyl)-1-{N-[2-(4-cyano-4-(2-fluorophenyl)-cyclohexylamino)ethyl]}carboxamido-5-methoxycarbonyl-4-methyl-2-oxo-1,2,3,6-tetrahydropyrimidine hydrochloride] | 102 pM |
| COCC1=C(C(=O)OC)C(c2ccc(F)c(F)c2)N(C(=O)NCCN[C@H]2CC[C@](C#N)(c3ccccn3)CC2)C(=O)N1 (single isomer, unassigned; (+)) [Example 14, (+)-cis-6-(3,4-Difluorophenyl)-1-{N-[2-(4-cyano-4-(2-pyridyl)-cyclohexylamino)ethyl]}carboxamido-5-methoxycarbonyl-4-methoxymethyl-2-oxo-1,2,3,6-tetrahydropyrimidine hydrochloride] | 933 pM |

Results, then the molecule that gave them:

| Ki | Molecule |
| --- | --- |
| 126 pM | COCC1=C(C(=O)OC)C(c2ccc(F)c(F)c2)N(C(=O)NCCN[C@H]2CC[C@@](C#N)(c3ccccc3)CC2)C(=O)N1 (single isomer, unassigned; (+)) [Example 5, (+)-trans-6-(3,4-Difluorophenyl)-1-{N-[2-(4-cyano-4-phenyl-cyclohexylamino)ethyl]}carboxamido-5-methoxycarbonyl-4-methoxymethyl-2-oxo-1,2,3,6-tetrahydropyrimidine hydrochloride] |
| 4470 pM | COCC1=C(C(=O)OC)C(c2ccc(F)c(F)c2)N(C(=O)NCCN[C@H]2CC[C@H](c3ccccn3)CC2)C(=O)N1 (single isomer, unassigned; (+)) [Example 7, (+)-trans-6-(3,4-Difluorophenyl)-1-{N-[2-(4-(2-pyridyl)-cyclohexylamino)ethyl]}carboxamido-5-methoxycarbonyl-4-methoxymethyl-2-oxo-1,2,3,6-tetrahydropyrimidine hydrochloride] |
